According to patent US12281102B2, “Inhibitors of APOL1 and methods of using same” (Vertex Pharmaceuticals Incorporated, priority 2020, dated 2025):

target: T1, G1 APOL1 (Homo sapiens, UniProt O14791, I384M/S342G); test: Acute APOL1 Thallium Assay with inducible stable clones of HEK 293 cells; format: cell-based; conditions: HEK 293 T-Rex inducible stable clone expressing G1 APOL1; read-out: Thallium Assay (IC50)
T1 construct: expressed in transfected cells
T1 sequence (O14791 28-398 S342G/I384M): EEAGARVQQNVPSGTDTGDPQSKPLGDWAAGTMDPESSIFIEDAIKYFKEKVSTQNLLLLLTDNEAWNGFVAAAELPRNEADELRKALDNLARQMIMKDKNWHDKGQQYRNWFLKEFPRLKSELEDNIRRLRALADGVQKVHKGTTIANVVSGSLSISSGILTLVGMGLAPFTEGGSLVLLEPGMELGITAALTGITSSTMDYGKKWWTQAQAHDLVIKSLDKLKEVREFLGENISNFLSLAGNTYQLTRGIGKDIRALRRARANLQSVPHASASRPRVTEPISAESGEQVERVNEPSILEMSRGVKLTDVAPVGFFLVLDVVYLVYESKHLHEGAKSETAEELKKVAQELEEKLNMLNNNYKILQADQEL
Outline: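 APOL1 pore function was measured as thallium influx, detected by a Tl+-sensitive fluorescent dye loaded as AM ester, on a FLIPR Tetra after Tl+ addition. Cells were HEK T-Rex G1 APOL1 clone DC3.25, 26,000 per well, induced with tetracycline at plating in Opti-MEM assay medium.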

SMILES	IC50
O=S(=O)(NC[C@H]1C[C@H](c2c(-c3ccc(F)cc3)[nH]c3c(F)cc(F)cc32)C1)N[C@@H](CO)C(F)F [Compound 347]	> 1 µM
O=S(=O)(NC[C@H]1C[C@H](c2c(-c3ccc(F)cc3)[nH]c3c(F)cc(F)cc32)C1)N[C@@H]1CCC[C@H]1O [Compound 348]	> 1 µM
NC(=O)C1(NS(=O)(=O)NC[C@H]2C[C@H](c3c(-c4ccc(F)cc4)[nH]c4c(F)cc(F)cc43)C2)CC1 [Compound 349]	> 1 µM
O=S(=O)(NC[C@H](O)CO)NC[C@H]1C[C@H](c2c(-c3ccc(F)cc3)[nH]c3c(F)cc(F)cc32)C1 [Compound 350]	> 1 µM
C[C@@H](O)CNS(=O)(=O)NC[C@H]1C[C@H](c2c(-c3ccc(F)cc3)[nH]c3c(F)cc(F)cc32)C1 [Compound 351]	> 1 µM
O=S(=O)(NC[C@@H](O)CO)NC[C@H]1C[C@H](c2c(-c3ccc(F)cc3)[nH]c3c(F)cc(F)cc32)C1 [Compound 352]	> 1 µM
NC(=O)[C@H](CO)NS(=O)(=O)NC[C@H]1C[C@H](c2c(-c3ccc(F)cc3)[nH]c3c(F)cc(F)cc32)C1 [Compound 353]	> 1 µM
CNS(=O)(=O)NC[C@H]1C[C@H](c2c(-c3ccc(F)cc3)[nH]c3c(F)cc(F)cc32)C1 [Compound 354]	> 1 µM
O=S(=O)(NC[C@H]1C[C@H](c2c(-c3ccc(F)cc3)[nH]c3c(F)cc(F)cc32)C1)NC1(CO)CCC1 [Compound 355]	0.25 to 1 µM
CC(O)CCNS(=O)(=O)NC[C@H]1C[C@H](c2c(-c3ccc(F)cc3)[nH]c3c(F)cc(F)cc32)C1 (some centres unmarked) [Compound 356]	0.25 to 1 µM
O=S(=O)(NC[C@H]1C[C@H](c2c(-c3ccc(F)cc3)[nH]c3c(F)cc(F)cc32)C1)N[C@@H]1CCC[C@@H]1O [Compound 357]	> 1 µM
O=S(=O)(NC[C@H]1C[C@H](c2c(-c3ccc(F)cc3)[nH]c3c(F)cc(F)cc32)C1)NC(CO)C(F)(F)F (some centres unmarked) [Compound 358]	> 1 µM
O=S(=O)(NCCc1c[nH]cn1)NC[C@H]1C[C@H](c2c(-c3ccc(F)cc3)[nH]c3c(F)cc(F)cc32)C1 [Compound 359]	> 1 µM
C[C@H](O)[C@H](CO)NS(=O)(=O)NC[C@H]1C[C@H](c2c(-c3ccc(F)cc3)[nH]c3c(F)cc(F)cc32)C1 [Compound 360]	> 1 µM
CN(CC(O)CO)S(=O)(=O)NC[C@H]1C[C@H](c2c(-c3ccc(F)cc3)[nH]c3c(F)cc(F)cc32)C1 (some centres unmarked) [Compound 361]	> 1 µM
C[C@@H](O)[C@@H](CO)NS(=O)(=O)NC[C@H]1C[C@H](c2c(-c3ccc(F)cc3)[nH]c3c(F)cc(F)cc32)C1 [Compound 363]	> 1 µM
CC(CO)(CO)NS(=O)(=O)NC[C@H]1C[C@H](c2c(-c3ccc(F)cc3)[nH]c3c(F)cc(F)cc32)C1 [Compound 365]	> 1 µM
O=S(=O)(NCCCn1ccnc1)NC[C@H]1C[C@H](c2c(-c3ccc(F)cc3)[nH]c3c(F)cc(F)cc32)C1 [Compound 366]	> 1 µM
Cn1cnc(CNS(=O)(=O)NC[C@H]2C[C@H](c3c(-c4ccc(F)cc4)[nH]c4c(F)cc(F)cc43)C2)c1 [Compound 367]	> 1 µM
O=C1CC(CNS(=O)(=O)NC[C@H]2C[C@H](c3c(-c4ccc(F)cc4)[nH]c4c(F)cc(F)cc43)C2)CN1 (some centres unmarked) [Compound 368]	0.25 to 1 µM
O=S(=O)(NCCc1cn[nH]c1)NC[C@H]1C[C@H](c2c(-c3ccc(F)cc3)[nH]c3c(F)cc(F)cc32)C1 [Compound 369]	0.25 to 1 µM

SMILES	IC50
CN(C)S(=O)(=O)NC[C@H]1C[C@H](c2c(-c3ccc(F)cc3)[nH]c3c(F)cc(F)cc32)C1 [Compound 370, 3-[3-[(dimethylsulfamoylamino)methyl]cyclobutyl]-5,7-difluoro-2-(4-fluorophenyl)-1H-indole]	> 1 µM
CC(=O)NS(=O)(=O)NC[C@H]1C[C@H](c2c(-c3ccc(F)cc3)[nH]c3c(F)cc(F)cc32)C1 [Compound 371]	0.25 to 1 µM
NS(=O)(=O)NC[C@H]1C[C@H](c2c(-c3ccc(F)cc3)[nH]c3c(F)cc(F)cc32)C1 [Compound 372]	< 0.25 µM
O=C1NCCN1C[C@H]1C[C@H](c2c(-c3ccc(F)cc3)[nH]c3c(F)cc(F)cc32)C1 [Compound 373, 1-(((1r,3r)-3-(5,7-difluoro-2-(4-fluorophenyl)-1H-indol-3-yl)cyclobutyl)methyl)imidazolidin-2-one]	< 0.25 µM
OCC(CO)NCC1CC(c2c(-c3ccc(F)cc3)[nH]c3c(F)cc(F)cc23)C1 (centres unmarked) [Compound 376]	0.25 to 1 µM
OC1CC(NCC2CC(c3c(-c4ccc(F)cc4)[nH]c4c(F)cc(F)cc34)C2)C1 (centres unmarked) [Compound 377]	0.25 to 1 µM
Fc1ccc(-c2[nH]c3c(F)cc(F)cc3c2C2CC(CNCC(F)F)C2)cc1 (centres unmarked) [Compound 379]	0.25 to 1 µM
Fc1ccc(-c2[nH]c3c(F)cc(F)cc3c2C2CC(CNC3COC3)C2)cc1 (centres unmarked) [Compound 380]	0.25 to 1 µM
CN1CCC(NCC2CC(c3c(-c4ccc(F)cc4)[nH]c4c(F)cc(F)cc34)C2)C1=O (centres unmarked) [Compound 381]	0.25 to 1 µM
O=C1CCC(NCC2CC(c3c(-c4ccc(F)cc4)[nH]c4c(F)cc(F)cc34)C2)C(=O)N1 (centres unmarked) [Compound 382]	0.25 to 1 µM
C[C@@H](O)CNCC1CC(c2c(-c3ccc(F)cc3)[nH]c3c(F)cc(F)cc23)C1 (some centres unmarked) [Compound 383]	0.25 to 1 µM
NC12CC(NCC3CC(c4c(-c5ccc(F)cc5)[nH]c5c(F)cc(F)cc45)C3)(C1)C2 (centres unmarked) [Compound 384]	0.25 to 1 µM
OCC(O)CNCC1CC(c2c(-c3ccc(F)cc3)[nH]c3c(F)cc(F)cc23)C1 (centres unmarked) [Compound 385]	0.25 to 1 µM
O=C1NCCC1NCC1CC(c2c(-c3ccc(F)cc3)[nH]c3c(F)cc(F)cc23)C1 (centres unmarked) [Compound 386]	0.25 to 1 µM
O[C@H]1C[C@H](NCC2CC(c3c(-c4ccc(F)cc4)[nH]c4c(F)cc(F)cc34)C2)C1 (some centres unmarked) [Compound 387]	0.25 to 1 µM
NCCNCC1CC(c2c(-c3ccc(F)cc3)[nH]c3c(F)cc(F)cc23)C1 (centres unmarked) [Compound 388]	0.25 to 1 µM
C[C@@H](CO)NCC1CC(c2c(-c3ccc(F)cc3)[nH]c3c(F)cc(F)cc23)C1 (some centres unmarked) [Compound 389]	> 1 µM
OCC1(NCC2CC(c3c(-c4ccc(F)cc4)[nH]c4c(F)cc(F)cc34)C2)COC1 (centres unmarked) [Compound 390]	> 1 µM
Fc1ccc(-c2[nH]c3c(F)cc(F)cc3c2C2CC(CN[C@@H]3CCOC3)C2)cc1 (some centres unmarked) [Compound 391]	> 1 µM
C[C@H](O)[C@H](CO)NCC1CC(c2c(-c3ccc(F)cc3)[nH]c3c(F)cc(F)cc23)C1 (some centres unmarked) [Compound 392]	> 1 µM
OCCCNCC1CC(c2c(-c3ccc(F)cc3)[nH]c3c(F)cc(F)cc23)C1 (centres unmarked) [Compound 393]	> 1 µM

SMILES	IC50
C[C@H](CO)NCC1CC(c2c(-c3ccc(F)cc3)[nH]c3c(F)cc(F)cc23)C1 (some centres unmarked) [Compound 394]	> 1 µM
CC[C@@H](CO)NCC1CC(c2c(-c3ccc(F)cc3)[nH]c3c(F)cc(F)cc23)C1 (some centres unmarked) [Compound 395]	> 1 µM
Fc1ccc(-c2[nH]c3c(F)cc(F)cc3c2C2CC(CNC3CCOC3)C2)cc1 (centres unmarked) [Compound 396]	> 1 µM
OCC1(NCC2CC(c3c(-c4ccc(F)cc4)[nH]c4c(F)cc(F)cc34)C2)CC1 (centres unmarked) [Compound 397]	> 1 µM
Fc1ccc(-c2[nH]c3c(F)cc(F)cc3c2C2CC(CN[C@H]3CCOC3)C2)cc1 (some centres unmarked) [Compound 398]	> 1 µM
Cn1ccc(NCC2CC(c3c(-c4ccc(F)cc4)[nH]c4c(F)cc(F)cc34)C2)n1 (centres unmarked) [Compound 399]	> 1 µM
O=C1NCC[C@@H]1NCC1CC(c2c(-c3ccc(F)cc3)[nH]c3c(F)cc(F)cc23)C1 (some centres unmarked) [Compound 400]	> 1 µM
CC(C)(C)OC(=O)NCCNCC1CC(c2c(-c3ccc(F)cc3)[nH]c3c(F)cc(F)cc23)C1 (centres unmarked) [Compound 401]	> 1 µM
CC(C)C(CO)NCC1CC(c2c(-c3ccc(F)cc3)[nH]c3c(F)cc(F)cc23)C1 (centres unmarked) [Compound 402]	> 1 µM
NCC(O)CNCC1CC(c2c(-c3ccc(F)cc3)[nH]c3c(F)cc(F)cc23)C1 (centres unmarked) [Compound 403]	> 1 µM
CC1(NCC2CC(c3c(-c4ccc(F)cc4)[nH]c4c(F)cc(F)cc34)C2)COC1 (centres unmarked) [Compound 404]	> 1 µM
Fc1ccc(-c2[nH]c3c(F)cc(F)cc3c2C2CC(CNCC3COC3)C2)cc1 (centres unmarked) [Compound 405]	> 1 µM
OCC(CO)(CO)NCC1CC(c2c(-c3ccc(F)cc3)[nH]c3c(F)cc(F)cc23)C1 (centres unmarked) [Compound 406]	> 1 µM
CC(C)(CO)NCC1CC(c2c(-c3ccc(F)cc3)[nH]c3c(F)cc(F)cc23)C1 (centres unmarked) [Compound 407]	> 1 µM
C[C@@H](O)[C@@H](CO)NCC1CC(c2c(-c3ccc(F)cc3)[nH]c3c(F)cc(F)cc23)C1 (some centres unmarked) [Compound 408]	> 1 µM
NCCCNCC1CC(c2c(-c3ccc(F)cc3)[nH]c3c(F)cc(F)cc23)C1 (centres unmarked) [Compound 409]	> 1 µM
O=C1CC(NCC2CC(c3c(-c4ccc(F)cc4)[nH]c4c(F)cc(F)cc34)C2)CN1 (centres unmarked) [Compound 410]	> 1 µM
CS(=O)(=O)NC[C@H]1C[C@H](c2c(-c3ccc(F)cc3)[nH]c3c(F)cc(F)cc32)C1 [Compound 412, N-(((1r,3r)-3-(5,7-difluoro-2-(4-fluorophenyl)-1H-indol-3-yl)cyclobutyl)methyl)methanesulfonamide]	0.25 to 1 µM
CCS(=O)(=O)NC[C@H]1C[C@H](c2c(-c3ccc(F)cc3)[nH]c3c(F)cc(F)cc32)C1 [Compound 413]	0.25 to 1 µM
N#CCS(=O)(=O)NC[C@H]1C[C@H](c2c(-c3ccc(F)cc3)[nH]c3c(F)cc(F)cc32)C1 [Compound 414]	0.25 to 1 µM
